These are literature values, as cited in paper PMC8510358, “Common Shortcomings in Study on Radiopharmaceutical Design Research: A Case Study of ^99mTc-Labelled Methotrexate” (Molecules, 2021).

This data set concerns folate receptors. The arrangement: method as in PMID 23851396. Conditions: in comparison to folic acid (FA); ref [3].

For `CN(Cc1cnc2nc(N)nc(N)c2n1)c1ccc(C(=O)N[C@@H](CCC(=O)O)C(=O)O)cc1` [MTX, Methotrexate], the “affinity to folate receptors” value was “noticeably lower”.
